For assay [1], the target named is T1, DBP (vitamin D binding protein) (Homo sapiens, UniProt P02774).
T1 construct: Human plasma diluted to 1:5000 with Tris buffer/gelatin solution; from tissue; host or cells: human plasma
T1 sequence (P02774 17-474): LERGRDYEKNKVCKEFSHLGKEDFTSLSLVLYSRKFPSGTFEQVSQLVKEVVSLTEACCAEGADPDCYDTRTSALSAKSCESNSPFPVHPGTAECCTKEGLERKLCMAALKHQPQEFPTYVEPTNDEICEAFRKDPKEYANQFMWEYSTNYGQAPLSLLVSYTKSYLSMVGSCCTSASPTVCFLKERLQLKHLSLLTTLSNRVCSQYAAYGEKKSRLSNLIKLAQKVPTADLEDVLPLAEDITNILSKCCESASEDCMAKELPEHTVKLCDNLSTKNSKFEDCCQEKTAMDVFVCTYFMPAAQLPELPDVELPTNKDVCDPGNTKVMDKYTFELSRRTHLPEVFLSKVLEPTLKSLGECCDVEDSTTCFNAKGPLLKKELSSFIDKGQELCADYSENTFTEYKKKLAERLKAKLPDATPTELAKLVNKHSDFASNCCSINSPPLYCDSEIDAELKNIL
The assay can be described thus: DBP binding assay (human plasma, [3H]-25(OH)D3 displacement). Particulars: human plasma diluted 1:5000; read-out: B50 (DBP binding, displacement of 50 percent [3H]-25(OH)D3). Here is the method:
1. Tris buffer: • 22.50 g Tris-HCI • 500 ml H2O
5. DBP (vitamin D binding protein) (human plasma)
2. Dextran Coated Charcoal Solution • (1) preparation of charcoal solution • Norit decolorizing neutral charcoal 2.0 g • Tris buffer 150 mL • Stirring • (2) preparation of dextran solution • Dextran T—70 0.2 g • Tris buffer 50 ml • (3) preparation of dextran coated charcoal solution • Slowly dripped the dextran solution into charcoal solution with stirring. • Kept refrigerated overnight. • Thirty minute before use, kept it on ice with continuous mixing. • This solution can be kept in 4° C. for 2 month.
4. DBP Solution • Human plasma diluted to 1:5000 with Tris buffer/gelatin solution
8. [^3H-26,27]-[…] Solution • Stock solution diluted in Tris buffer, 20,000 CPM/50 μl. (C) Assay
(D) Calculation: • The amount of 25(OH)D3 to displace 50 percent [3H]-25(OH)D3 was calculated as B50 for 25(OH)D3 DBP binding. The DBP binding of other compounds was calculated as B50 relative to a value of 1 for 25(OH)D3.

Assay [2] deals with MCF-7 cells. Description: [3H]-Thymidine proliferation assay with MCF-7 cells. Particulars: breast cancer cells, 3 days, 3H-thymidine incorporation. The class given is cell-based. As for the experimental part:
1. Preparation of Cell Suspension. • When MCF-7 cells were 70-80% confluent, aspirated growth media. Washed the cells with 1×PBS. Trypsinized with trypsin-EDTA from the plate, collected cells from the tissue culture flask, centrifuged (500×g, 5 min) and resuspended in growth media.
2. Cell Plating. • Counted the cells and adjusted the cell density to 25,000/ml. Added 200 μl per well in a 96 well plate. Incubated plate for 24 h at 37° C. in a humidified atmosphere plus 5% CO2. Aspirated used media and replaced with 175 μl per well with proliferation media.
(§1) 3. Substrate Addition. • Added 25 μl of compound (final concentration 10^−7 M, 5×10^−8 M, 10^−8 M, 5×10^−9 M, 10^−10 M or 0 M) into each designated well. Incubated plates for 3 days at 37° C. in a humidified atmosphere plus 5% CO2.
(§2) 4. ^3H-Thymidine Incorporation. • Added ^3H-thymidine at 0.02 μCi per well and incubated at 37° C. in a humidified atmosphere plus 5% CO2 for 6 h.
(§3) 5. Plate Harvesting. • Aspirated all media and washed cells with 1×PBS. Trypsinized cells for 30 min at 37° C. in a humidified atmosphere plus 5% CO2. Harvested cells onto a 96 well filter plate (Millipore) using a Tomtec Cell Harvestor, according to manufacturers instructions.
6. Scintillation Counting. • Added 25 μl of scintillation fluid per well. Counted the plate using a scintillation counter. Results: Compound (20R)-I(e) inhibited MCF-7 cell proliferation.

For assay [3], the system named is SCC-25 cells. Description: [3H]-Thymidine proliferation assay with SCC-25 cells. The settings on record: head and neck cancer cells, 3 days, 3H-thymidine incorporation. The assay is classed as cell-based. As for the experimental part:
1. Preparation of Cell Suspension • When SCC-25 cells were 70-80% confluent, aspirated media. Washed the cells with 1×PBS. Trypsinized with trypsin-EDTA from the plate, collected cells from the tissue culture flask, centrifuged (500×g, 5 min) and resuspended in media.
2. Cell Plating. • Counted the cells and adjusted the cell density to 10,000/ml. Added 200 μl per well in a 96 well plate. Incubated plate for 24 h at 37° C. in a humidified atmosphere plus 5% CO2. Aspirated used media and replaced with 175 μl per well with media.
as §1, §2, §3
6. Scintillation Counting. • Added 25 μl of scintillation fluid per well. Counted the plate using a scintillation counter. Results: Compound (20R)-1(e) inhibited SCC-25 cell proliferation.
In general terms: Uptake of a labelled nucleoside into DNA is a usual measure of proliferation.

The subject of assay [4] is LNCaP cells. Description: [3H]-Thymidine proliferation assay with LNCaP cells. The assay is classed as cell-based. Particulars: prostate cancer cells, 3 days, 3H-thymidine incorporation. Here is the method:
1. Preparation of Cell Suspension. • When LNCaP cells were 70-80% confluent, aspirated media. Washed the cells with 1×PBS. Trypsinized with trypsin-EDTA from the plate, collected cells from the tissue culture flask, centrifuged (500×g, 5 min) and resuspended in media.
2. Cell Plating. • Counted the cells and adjusted the cell density to 2,000/ml. Added 200 μl per well in a 96 well plate. Incubated plate for 24 h at 37° C. in a humidified atmosphere plus 5% CO2. Aspirated used media and replace with 175 μl per well with media.
as §1, §2
5. Plate Harvesting. • Aspirated all media. Trypsinized cells for 30 min at 37° C. in a humidified atmosphere plus 5% CO2. Harvested cells onto a 96 well filter plate (Millipore) using a Tomtec Cell Harvestor, according to manufacturers instructions.
6. Scintillation Counting. • Added 25 μl of scintillation fluid per well. Counted the plate using a scintillation counter. Results: Compound (20R)-I(e) inhibited LNCaP cell proliferation.

The test system of assay [5] is BxPC-3 cells. The assay can be described thus: [3H]-Thymidine proliferation assay with BxPC-3 cells. The assay is classed as cell-based. The settings on record: pancreatic cancer cells, 3 days, 3H-thymidine incorporation. Here is the method: 1. Preparation of Cell Suspension • When BxPC-3 cells were 70-80% confluent, aspirated media. Washed the cells with 1×PBS. Trypsinized with trypsin-EDTA from the plate, collected cells from the tissue culture flask, centrifuged (500×g, 5 min) and resuspended in media.
2. Cell Plating. • Counted the cells and adjusted the cell density to 2,000/ml. Added 200 μl per well in a 96 well plate. Incubated plate for 24 h at 37° C. in a humidified atmosphere plus 5% CO2. Aspirated used media and replaced with 175 μl per well with media.
3. Substrate Addition. • Added 25 μl of compound (final concentration 10^−7 M, 5×10^−8 M, 10^−8M, 5×10^−9 M, 10^−10 M or 0 M) into each designated well. Incubated plates for 3 days at 37° C. in a humidified atmosphere plus 5% CO2.
as §2, §3
6. Scintillation Counting. • Added 25 μl of scintillation fluid per well. Counted the plate using a scintillation counter. Results: Compound (20R)-I(e) inhibited BxPC-3 cell proliferation.

The structures appear in SMILES notation.

For `C=C1/C(=C\C=C2/CCC[C@]3(C)C([C@H](C)C/C=C/C(=NOC)C(C)(C)C)=CC[C@@H]23)C[C@@H](O)C[C@@H]1O` [(20R)-I(e)], the IC50 in assay [1] is greater than 3.5 µM. Also, the “Inhibition of MCF-7 cell proliferation” value in assay [2] is “inhibited”. The “Inhibition of SCC-25 cell proliferation” value in assay [3] is on record as “inhibited”. Also, in assay [4], the “Inhibition of LNCaP cell proliferation” value is given as “inhibited”. Also, the “Inhibition of BxPC-3 cell proliferation” value in assay [5] is listed as “inhibited”.

The values above are taken from patent publication US8906888B2, “Low-calcemic 16,23-diene 25-oxime analogs of 1α,25-dihydroxy vitamin D3” (Cytochroma Inc., priority 2005, dated 2014).
